Source: the NIST ThermoML archive (doi:10.1021/je300953u)
Numbers after ± are expanded uncertainties.

Test: mn = molality of the nth substance listed, in mol/kg
Conditions: 101 kPa, Liquid, Vibrating tube method

Structure (SMILES): CCn1cc[n+](C)c1.[Br-] [1-ethyl-3-methylimidazolium bromide] + O
- mass density (298.15 K, m1 = 0.025): 998.38 ± 0.29 kg/m3
- mass density (298.15 K, m1 = 0.055): 999.96 ± 0.29 kg/m3
- mass density (308.15 K, m1 = 0.025): 995.33 ± 0.29 kg/m3
- mass density (308.15 K, m1 = 0.055): 996.89 ± 0.29 kg/m3
